Experimental data published in paper PMC4920673, “Nitroimidazole carboxamides as antiparasitic agents targeting Giardia lamblia, Entamoeba histolytica and Trichomonas vaginalis” (European Journal of Medicinal Chemistry, 2016).
≈ marks a conversion by molar mass, not a printed value. Like-named read-outs stand apart in the source and are kept apart here.

Experiments:
HEK293 cells = assay: Resazurin cytotoxicity assay, HEK293; type: cell-based, Human; settings: for Selectivity index (CC50/EC50): HEK293 CC50 / G. lamblia WB EC50
Method: (§1) Human HEK293 and HepG2 cells were seeded at 3000 and 5000 cells per well in 384-well plates, respectively. Cells were cultured in Dulbecco's modified Eagle's medium with 10% FBS for 24 h at 37 °C, 5% CO2. A dilution series of compounds was added, with the highest concentration of 100 μM. […] After 24 h incubation with the compounds, 5 μM resazurin was added into each well and incubated at 37 °C for 2 h. As a negative control, 1% Triton X-100 was added into the culture media to lyse all of the cells. The fluorescence intensity was read using Polarstar Omega with excitation/emission 560/590 nm. Data were analysed with GraphPad Prism 6 software (La Jolla, California USA) to calculate CC50 values.

E. histolytica HM1:IMSS = assay: ATP-bioluminescence growth/survival EC50 assay, E. histolytica; type: cell-based, Entamoeba histolytica
Method: (§2) Compounds were screened for antiparasitic activity using an ATP-bioluminescence based assay for cell growth and survival, [24]. […] Viable cell numbers were determined in triplicate using the CellTiter-Glo Luminescent Cell Viability Assay.

G. lamblia WB (MtzS) = assay: ATP-bioluminescence growth/survival EC50 assay, G. lamblia WB; settings: for S.I (CC50/EC50): average cytotoxicity against HEK293 and HepG2 / G. lamblia WB activity
Method: as §2

[1] = system: C. difficile NAP1/027 (ATCC BAA-1803); assay: Broth microdilution MIC assay, C. difficile NAP1/027; type: cell-based, Clostridium difficile; settings: strain NAP1/027; for MIC: Clostridioides difficile, ATCCBAA1803
Method: Clostridium difficile strains (630, ATCC BAA-1382 and NAP1/027, ATCC BAA-1803) were maintained as previously described. The minimum inhibition concentration (MIC) was determined according to the CLSI Methods with modifications in broth and inoculum for C. difficile, [25], [26]. Briefly, compounds and control antibiotics were serially diluted two-fold in 96-well plates (Non-binding surface, Corning). The plates were placed in a Coy anaerobic chamber (5% H2, 10% CO2, 85% N2) overnight to reduce the medium. C. difficile bacteria from BHIS(TA) agar plates were cultured anaerobically in BHIS at 37 °C overnight. […]. Compound concentration ranged from 64 to 0.03 μg/mL. An antibiotic standard, a positive growth control (no compound) and a sterility control (no bacteria) were included on each 96 well plate. Plates were covered and incubated at 37 °C for 24 h. MICs for each strain were determined as the lowest concentration without visible growth. Variance between replicates was typically within one 2-fold dilution. Median MICs are reported with a range given when the median MIC was between two tested concentrations.

HepG2 cells = assay: Resazurin cytotoxicity assay, HepG2; type: cell-based, Human; settings: for S.I (CC50/EC50), second value of a split cell: HepG2 CC50 / G. lamblia WB EC50
Method: as §1

[2] = system: C. difficile 630 (ATCC BAA-1382); assay: Broth microdilution MIC assay, C. difficile 630; type: cell-based, Clostridium difficile; settings: for MIC: Clostridioides difficile, ATCCBAA1382
Method: Clostridium difficile strains (630, ATCC BAA-1382 and NAP1/027, ATCC BAA-1803) were maintained as previously described. The minimum inhibition concentration (MIC) was determined according to the CLSI Methods with modifications in broth and inoculum for C. difficile, [25], [26]. Briefly, compounds and control antibiotics were serially diluted two-fold in 96-well plates (Non-binding surface, Corning). […] C. difficile bacteria from BHIS(TA) agar plates were cultured anaerobically in BHIS at 37 °C overnight. […] An antibiotic standard, a positive growth control (no compound) and a sterility control (no bacteria) were included on each 96 well plate. Plates were covered and incubated at 37 °C for 24 h. MICs for each strain were determined as the lowest concentration without visible growth. […] Median MICs are reported with a range given when the median MIC was between two tested concentrations.

T. vaginalis F1623 = assay: ATP-bioluminescence growth/survival EC50 assay, T. vaginalis; type: cell-based, Trichomonas vaginalis
Method: as §2

[3] = Resazurin cytotoxicity assay, HEK293; type: cell-based, Human; settings: human, 24 h
Method: as §1

G. lamblia 713M3 (MtzR) = assay: ATP-bioluminescence growth/survival EC50 assay, G. lamblia 713M3; type: cell-based, Giardia lamblia
Method: as §2

[4] = Resazurin cytotoxicity assay, HepG2; type: cell-based, Human; settings: human, 24 h
Method: as §1

[5] = Plasma protein binding by ultrafiltration; type: in vitro ADME; settings: human, pooled human plasma (100%), 5 μM, 100% human plasma, 37 °C, 30 min, ultrafiltration; for fraction unbound at 30 min, 5 μM: read-out: Plasma protein binding (% bound); for fraction unbound at 0.5 h, 5 µM: read-out: Plasma protein binding (% bound) (converted)
Method: Plasma Protein Binding (PPB) was performed using an Ultrafiltration method, [28]. […] Samples were incubated at […] for 30 min, then centrifuged at 14,000 × g for 8 min, with the clear supernatant transferred to a vial for LC/MS/MS analysis. […] The fraction of unbound compound was calculated by determining the concentration of the filtered sample and the concentration of unfiltered sample. […] LC/MS/MS parameters are detailed in the supplementary information (Supplementary Table 1).

[6] = MtzS, minimum n = 3, read-out: EC50 E. histolytica HM1:IMSS
[7] = read-out: EC50 G. lamblia WB, MtzS strain WB, minimum n = 3
[8] = strain 630, MtzS, median of n = 4
[9] = Trichomonas vaginalis, read-out: EC50 T. vaginalis F1623, MtzS, minimum n = 3
[10] = Trichomonas vaginalis, read-out: pEC50 ± SE T. vaginalis F1623, MtzS (converted)
[11] = Giardia duodenalis, read-out: EC50 G. lamblia 713M3, MtzR strain 713M3, minimum n = 3
[12] = Giardia duodenalis, read-out: pEC50 ± SE G. lamblia 713M3, MtzR strain 713M3 (converted)
[13] = Entamoeba histolytica, read-out: EC50 E. histolytica HM1:IMSS
[14] = Entamoeba histolytica, read-out: pEC50 ± SE E. histolytica HM1:IMSS (converted)
[15] = Giardia duodenalis, read-out: EC50 G. lamblia WB, MtzS strain WB, minimum n = 3
[16] = Giardia duodenalis, read-out: pEC50 ± SE G. lamblia WB, MtzS strain WB (converted)
[17] = HepG2 cells, highest concentration 100 μM, n = 3, read-out: CC50 Hep G2
[18] = strain 630, MtzS, median of n = 4, read-out: MIC C. difficile 630
[19] = MtzS, minimum n = 3, read-out: EC50 T. vaginalis F1623
[20] = MtzR strain 713M3, minimum n = 3, read-out: EC50 G. lamblia 713M3
[21] = HEK293 cells, highest concentration 100 μM, n = 3, read-out: CC50 HEK 293

Compound	CC50 (HEK293 cells)	pEC50 ± SE E. histolytica HM1:IMSS (E. histolytica HM1:IMSS; MtzS)	EC50 (E. histolytica HM1:IMSS; [6])	pEC50 ± SE G. lamblia WB (G. lamblia WB (MtzS); MtzS strain WB)	EC50 (G. lamblia WB (MtzS); [7])	MIC C. difficile NAP1/027 [1]	CC50 (HepG2 cells)	MIC C. difficile 630 [2, 8]	EC50 (T. vaginalis F1623; [9])	EC50 (T. vaginalis F1623; [10])	EC50 (G. lamblia 713M3 (MtzR); [11])	EC50 (G. lamblia 713M3 (MtzR); [12])	EC50 (E. histolytica HM1:IMSS; [13])	EC50 (E. histolytica HM1:IMSS; [14])	EC50 (G. lamblia WB (MtzS); [15])	EC50 (G. lamblia WB (MtzS); [16])	MIC [1]	CC50 at 24 h [4, 17]	MIC [2, 18]	S.I (CC50/EC50) (G. lamblia WB (MtzS))	other results
1-(cyclopropylmethyl)-4-nitro-1H-imidazole-2-carboxamide [Compound 13f]	> 100 µM	< 4.3	> 50 µM	< 4.3	> 50 µM	>64 µg/mL	> 100 µM	>64 µg/mL													
O=C(NCc1ccc(OC(F)(F)F)cc1)c1ncc([N+](=O)[O-])[nH]1 [Compound 12b, 5-nitro-N-(4-(trifluoromethoxy)benzyl)-1H-imidazole-2-carboxamide]									2.2 µM	2.24 µM	2.5 µM	2.51 µM	4.5 µM	4.47 µM	0.2 µM	0.245 µM	8 to 16 µg/mL (≈ 24.2 to 48.5 µM)	93 µM	16 µg/mL (≈ 48.5 µM)		CC50 at 24 h ([3]; highest concentration 100 μM, n = 3, read-out: CC50 HEK 293): > 100 µM; Selectivity index (CC50/EC50) (HEK293 cells): > 500; CC50 at 24 h ([4]; HepG2 cells, read-out: pCC50 ± SE Hep G2 (converted)): 93.3 µM; S.I (CC50/EC50), second value of a split cell (HepG2 cells): 465
Cn1c([N+](=O)[O-])cnc1C(=O)NCc1cccc(OC(F)(F)F)c1 [Compound 8c, 1-methyl-5-nitro-N-(3-(trifluoromethoxy)benzyl)-1H-imidazole-2-carboxamide]	> 100 µM	4.77 ± 0.02	17 µM	5.51 ± 0.02	3.1 µM	64 µg/mL (≈ 186 µM)	> 100 µM	32 to 64 µg/mL												>32	pEC50 ± SE T. vaginalis F1623 (T. vaginalis F1623; MtzS): 5.09 ± 0.09; EC50 (T. vaginalis F1623; [19]): 8.1 µM; pEC50 ± SE G. lamblia 713M3 (G. lamblia 713M3 (MtzR); MtzR strain 713M3): 5.84 ± 0.69; EC50 (G. lamblia 713M3 (MtzR); [20]): 1.5 µM
O=C(NC1CCCCC1)c1ncc([N+](=O)[O-])[nH]1 [Compound 12k, N-cyclohexyl-5-nitro-1H-imidazole-2-carboxamide]									2.4 µM	2.45 µM	5.5 µM	5.5 µM	2.8 µM	2.82 µM		0.603 µM	8 µg/mL (≈ 33.6 µM)	> 100 µM	8 µg/mL (≈ 33.6 µM)	>167	CC50 at 24 h [3, 21]: > 100 µM; fraction unbound at 30 min, 5 μM [5]: ≤ 0.06; fraction unbound at 0.5 h, 5 µM [5]: 0.01; MIC ([2]; 630 and NAP1/027 strains together or strain not given, read-out: MIC C. difficile): 4 to 16 µg/mL (≈ 16.8 to 67.2 µM)
1-(cyclohexylmethyl)-4-nitro-1H-imidazole-2-carboxamide [Compound 13g]	> 100 µM	< 4.3	> 50 µM	5.30 ± 0.06	5 µM	>64 µg/mL	> 100 µM	>64 µg/mL												>20	
Cn1c([N+](=O)[O-])cnc1C(=O)NCc1ccc(OC(F)(F)F)cc1 [Compound 8b, 1-methyl-5-nitro-N-(4-(trifluoromethoxy)benzyl)-1H-imidazole-2-carboxamide]	> 100 µM	4.85 ± 0.02	14 µM	5.52 ± 0.03	3 µM		> 100 µM	32 µg/mL (≈ 93 µM)												>33	pEC50 ± SE T. vaginalis F1623 (T. vaginalis F1623; MtzS): 4.88 ± 0.01; EC50 (T. vaginalis F1623; [19]): 13 µM; pEC50 ± SE G. lamblia 713M3 (G. lamblia 713M3 (MtzR); MtzR strain 713M3): 5.06 ± 0.29; EC50 (G. lamblia 713M3 (MtzR); [20]): 8.8 µM
Cn1c([N+](=O)[O-])cnc1C(=O)NC1CCCCC1 [Compound 8k, N-cyclohexyl-1-methyl-5-nitro-1H-imidazole-2-carboxamide]									11 µM	10.7 µM	5.1 µM	5.01 µM	3.7 µM	3.72 µM	4.9 µM	4.9 µM	> 64 µg/mL	> 100 µM	> 64 µg/mL	>20	CC50 at 24 h [3, 21]: > 100 µM; fraction unbound at 30 min, 5 μM [5]: ≤ 0.06; fraction unbound at 0.5 h, 5 µM [5]: 0.06
O=C(NO)c1nc([N+](=O)[O-])cn1Cc1ccc(OC(F)(F)F)cc1 [Compound 14d, N-hydroxy-4-nitro-1-(4-(trifluoromethoxy)benzyl)-1H-imidazole-2-carboxamide]													10 µM	10 µM	5.1 µM	5.13 µM	16 µg/mL (≈ 46.2 µM)		16 µg/mL (≈ 46.2 µM)		CC50 at 24 h [3, 21]: 36 µM; CC50 at 24 h ([3]; HEK293 cells, read-out: pCC50 ± SE HEK293 (converted)): 36.3 µM; Selectivity index (CC50/EC50) (HEK293 cells): 7; CC50 at 24 h ([4]; highest concentration 100 μM, n = 3, read-out: CC50 Hep G2): > 100 µM; S.I (CC50/EC50), second value of a split cell (HepG2 cells): > 20
